One assay has as its target T1, aurora kinase B (Homo sapiens, UniProt Q96GD4).
T1 construct: purchased Invitrogen PV3174
Put plainly: Aurora kinase B inhibition in vitro (Invitrogen aurora kinase screening kit PV3174). Format: biochemical.

Assay [1] concerns K562 human chronicity marrow leukemic cells. Put plainly: Tumor cell inhibition ratio, CCK-8 kit, K562. To be noted: K562, read-out: Antiproliferative effect (inhibition ratio) K562. For orientation: Tetrazolium dyes change colour on reduction, which living cells bring about.
Description: (§3) The inhibitory activities of the compounds on tumor cells in vitro
The test system of assay [2] is A549 human lung cancer cells. Nature of the assay: Tumor cell inhibition ratio, CCK-8 kit, A549. To be noted: A549, read-out: Antiproliferative effect (inhibition ratio) A549.
Description: as §3
The test system of assay [3] is PC-3 human carcinoma of prostate. Put plainly: Tumor cell inhibition ratio, CCK-8 kit, PC-3. To be noted: read-out: Antiproliferative effect (inhibition ratio) PC-3.
Description: as §3
Assay [4] concerns Hut78 T-Lymphocytic Leukemia cells. Put plainly: Tumor cell inhibition ratio, CCK-8 kit, Hut78. As to conditions: Homo sapiens, HuT78, read-out: Antiproliferative effect (inhibition ratio) Hut-78.
Description: as §3
Assay [5] concerns Hep3B2.1-7 human hepatoma carcinoma cells. Nature of the assay: Tumor cell inhibition ratio, CCK-8 kit, Hep3B. As to conditions: read-out: Antiproliferative effect (inhibition ratio) Hep3B.
Description: as §3
For assay [6], the system named is PANC-1 human pancreatic cancer cells. Put plainly: Tumor cell inhibition ratio, CCK-8 kit, PANC-1. As to conditions: PANC-1, read-out: Antiproliferative effect (inhibition ratio) PANC-1.
Description: as §3
The subject of assay [7] is Colo320 human rectal cancer cells. Nature of the assay: Tumor cell inhibition ratio, CCK-8 kit, Colo320. As to conditions: COLO 320, read-out: Antiproliferative effect (inhibition ratio) Colo320.
Description: as §3
The subject of assay [8] is Jurkat E6-1 human T-cell lymphoma. Put plainly: Tumor cell inhibition ratio, CCK-8 kit, Jurkat E6-1. To be noted: Jurkat E6.1, read-out: Antiproliferative effect (inhibition ratio) E6-1.
Description: as §3
Assay [9] has as its system MDA-MB-435s human breast carcinoma cells. Nature of the assay: Tumor cell inhibition ratio, CCK-8 kit, MDA-MB-435s. To be noted: read-out: Antiproliferative effect (inhibition ratio) 435s.
Description: as §3
In another assay the target is EGFR tyrosine kinase (Homo sapiens, UniProt P00533). Nature of the assay: EGFR tyrosine kinase inhibition in vitro (Invitrogen EGFR inhibitor screening kit PV3193).
For assay [10], the system named is Jurkat E6-1 human T-cell lymphoma. Put plainly: Tumor cell IC50, CCK-8 kit, Jurkat E6-1. Format: cell-based. As to conditions: E6-1 cells. The source says: (§1) The inhibitory activities of the compounds on tumor cells (IC50) in vitro
(§2) The IC50 (IC50, unit: μg/ml) values of the compounds on Hut78 T-Lymphocytic Leukemia cells, Jurkat E6-1 human T-cell lymphoma, PANC-1 human pancreatic cancer cells, A549 human lung cancer cells, K562 human chronicity marrow leukemic cells, Hep3B2. 1-7 human hepatoma carcinoma cells, MDA-MB-435s human breast carcinoma cells, Colo320 human rectal cancer cells, PC-3 human carcinoma of prostate, and HepG2 human hepatoma carcinoma cells were determined using a CCK-8 kit. Erlotinib hydrochloride was used as the positive control drug.

Assay [11] concerns Hut78 T-Lymphocytic Leukemia cells. Put plainly: Tumor cell IC50, CCK-8 kit, Hut78. Format: cell-based. As to conditions: Homo sapiens, Hut-78 cells.
Description: as §1, §2

Assay [12] has as its system Colo320 human rectal cancer cells. Nature of the assay: Tumor cell IC50, CCK-8 kit, Colo320. In kind it is cell-based. As to conditions: COLO 320.
Description: as §1, §2

For assay [13], the system named is K562 human chronicity marrow leukemic cells. Put plainly: Tumor cell IC50, CCK-8 kit, K562. Format: cell-based.
Description: as §1, §2

Assay [14] has as its system MDA-MB-435s human breast carcinoma cells. Nature of the assay: Tumor cell IC50, CCK-8 kit, MDA-MB-435s. Format: cell-based. To be noted: 435s cells.
Description: as §1, §2

The test system of assay [15] is Hep3B2. 1-7 human hepatoma carcinoma cells. Put plainly: Tumor cell IC50, CCK-8 kit, Hep3B. In kind it is cell-based.
Description: as §1, §2

For assay [16], the system named is A549 human lung cancer cells. Put plainly: Tumor cell IC50, CCK-8 kit, A549. Format: cell-based.
Description: as §1, §2

Assay [17] deals with PANC-1 human pancreatic cancer cells. Put plainly: Tumor cell IC50, CCK-8 kit, PANC-1. In kind it is cell-based. To be noted: PANC-1 cells.
Description: as §1, §2

Assay [18] deals with PC-3 human carcinoma of prostate. Nature of the assay: Tumor cell IC50, CCK-8 kit, PC-3. Format: cell-based. As to conditions: PC-3 cells.
Description: as §1, §2

Where a name gives a salt, the structure may show the parent alone.

One may read the IC50 as the concentration needed to halve the response being measured.

T1 sequence (Q96GD4 whole entry): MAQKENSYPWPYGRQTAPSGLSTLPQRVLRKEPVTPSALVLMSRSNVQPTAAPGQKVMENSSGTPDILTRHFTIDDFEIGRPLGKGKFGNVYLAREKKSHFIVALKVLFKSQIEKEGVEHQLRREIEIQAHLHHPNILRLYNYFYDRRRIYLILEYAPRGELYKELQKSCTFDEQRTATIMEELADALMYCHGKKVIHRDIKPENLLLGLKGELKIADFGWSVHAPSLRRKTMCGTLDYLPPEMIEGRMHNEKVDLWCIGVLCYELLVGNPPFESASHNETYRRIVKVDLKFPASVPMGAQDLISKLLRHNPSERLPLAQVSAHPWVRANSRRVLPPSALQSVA
Chain of EGFR tyrosine kinase (P00533 25-1210): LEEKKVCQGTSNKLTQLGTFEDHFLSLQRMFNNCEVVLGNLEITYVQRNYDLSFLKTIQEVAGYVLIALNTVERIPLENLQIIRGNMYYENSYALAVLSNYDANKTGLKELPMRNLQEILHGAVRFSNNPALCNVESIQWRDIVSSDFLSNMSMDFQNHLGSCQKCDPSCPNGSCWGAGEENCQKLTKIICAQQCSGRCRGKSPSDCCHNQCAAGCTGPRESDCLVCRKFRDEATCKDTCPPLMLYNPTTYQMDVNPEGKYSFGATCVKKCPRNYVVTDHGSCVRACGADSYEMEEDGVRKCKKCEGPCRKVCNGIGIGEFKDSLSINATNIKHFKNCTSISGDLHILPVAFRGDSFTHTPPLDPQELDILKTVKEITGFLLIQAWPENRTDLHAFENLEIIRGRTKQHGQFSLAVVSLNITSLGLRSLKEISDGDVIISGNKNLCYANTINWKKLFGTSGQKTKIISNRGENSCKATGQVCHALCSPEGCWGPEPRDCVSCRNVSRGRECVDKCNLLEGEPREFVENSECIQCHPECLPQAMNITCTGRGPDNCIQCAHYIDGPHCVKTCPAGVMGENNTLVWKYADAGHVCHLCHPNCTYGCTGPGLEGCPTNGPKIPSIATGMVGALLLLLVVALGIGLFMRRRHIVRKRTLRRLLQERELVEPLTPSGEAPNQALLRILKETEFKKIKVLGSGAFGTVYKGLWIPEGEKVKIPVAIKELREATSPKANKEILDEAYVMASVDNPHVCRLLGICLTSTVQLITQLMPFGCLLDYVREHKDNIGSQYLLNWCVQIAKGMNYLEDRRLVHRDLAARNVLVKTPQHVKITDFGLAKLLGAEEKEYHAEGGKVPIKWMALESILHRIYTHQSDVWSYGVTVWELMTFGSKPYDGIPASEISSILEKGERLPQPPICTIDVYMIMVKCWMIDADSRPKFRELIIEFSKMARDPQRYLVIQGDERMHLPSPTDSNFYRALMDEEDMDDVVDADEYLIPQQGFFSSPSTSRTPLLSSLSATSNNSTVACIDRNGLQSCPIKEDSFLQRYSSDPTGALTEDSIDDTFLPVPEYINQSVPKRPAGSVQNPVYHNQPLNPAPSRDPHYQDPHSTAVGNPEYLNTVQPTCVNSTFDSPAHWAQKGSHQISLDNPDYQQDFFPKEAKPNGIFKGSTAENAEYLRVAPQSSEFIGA
Description for EGFR tyrosine kinase: The inhibitory activities of EGFR tyrosine kinase in vitro
Erlotinib hydrochloride was used as a positive control drug.

On to `COCCOc1cc2c(cc1OCCOC)C1=Nc3cccc(C#N)c3CN1C=N2` [Compound V-7, 9-cyano-2,3-bis(2-methoxyethoxy)-8H-quinazolino[4,3-b]quinazoline], for which the “The inhibition ratio of the compound on Aurora B(%)” value at aurora kinase B (40 μM) turned out to be 23.2%; at aurora kinase B (200 μM), 91.7%. The inhibition at 10 µM in [1] stood at 24.3%; in [2], 27.7%; in [3], 15.9%; in assay [4] it was 32.1%; in assay [5] it was 40.4%; in assay [6], 40.7%. Besides, the inhibition at 10 µM in assay [7] worked out at 42.1%; in assay [8] it was 34.6%; in assay [9], 38%. Further, the inhibition at 100 µM in assay [1] came out at 61.7%; in assay [2], 83.6%; in assay [3], 90.3%; in assay [4], 62.4%; in assay [5], 89.5%; in assay [6], 86.6%. Besides, the results for the inhibition at 100 µM in assay [7], in [8] and in assay [9] were 81.4%, 75.4% and 81.4%, respectively. The “The inhibition ratio of the compound on EGFR(%)” value at EGFR tyrosine kinase (40 μM) stood at 36.2%; on EGFR tyrosine kinase (200 μM), 80.5%.
Consider `COCCOc1cc2c(cc1OCCOC)C1=Nc3cccc(Cl)c3CN1C=N2.Cl` [Compound V-1, 9-chloro-2,3-bis(2-methoxyethoxy)-8H-quinazolino[4,3-b]quinazoline hydrochloride monohydrate], for which the “The inhibition ratio of the compound on Aurora B(%)” value came to 47.6% on aurora kinase B (40 μM) and 88.6% on aurora kinase B (200 μM). The inhibition at 10 µM in [1] amounted to 40.7%; in assay [2], 40.5%; in assay [3], 51.6%; in [4], 16.1%; in assay [5], 50.4%; in assay [6] it was 35.7%. The figures for the inhibition at 10 µM in assay [7], in [8] and in assay [9] were 55.1%, 55% and 60.9%, respectively. For the same molecule, the inhibition at 100 µM in assay [1] was found to be 87%; in [2], 81.4%; in assay [3], 62.4%; in [4], 64.5%; in assay [5] it was 89.3%; in [6], 78.1%. For the same molecule, the inhibition at 100 µM in [7] was found to be 81%; in [8], 81.7%; in [9] it was 91.2%. The “The inhibition ratio of the compound on EGFR(%)” value on EGFR tyrosine kinase (40 μM) was determined as 57.6%; at EGFR tyrosine kinase (200 μM), 91.5%.
In the case of `COCCOc1cc2c(cc1OCCOC)C1=Nc3cc(C#N)ccc3CN1C=N2` [Compound V-17, 11-cyano-2,3-bis(2-methoxyethoxy)-8H-quinazolino[4,3-b]quinazoline], the “The inhibition ratio of the compound on Aurora B(%)” value at aurora kinase B (40 μM) came out at 26.4%; at aurora kinase B (200 μM), 84.3%. Further, the inhibition at 10 µM amounted to 19.1% in assay [1]; 49.9% in assay [2]; 28.1% in assay [3]; 35.9% in assay [4]; 58.4% in [5]; 19.6% in assay [6]. In addition, the inhibition at 10 µM in assay [7] turned out to be 9.66%; in [8] it was 33.7%; in assay [9], 37.5%. In addition, the inhibition at 100 µM in [1] was 25.2%; in [2] it was 87.1%; in [3] it was 91.7%; in assay [4], 45.3%; in [5], 85.2%; in assay [6], 56.8%. The inhibition at 100 µM is 26.1% in assay [7], 79.6% in assay [8] and 95.5% in assay [9]. Further, the “The inhibition ratio of the compound on EGFR(%)” value at EGFR tyrosine kinase (40 μM) stood at 25.4%; on EGFR tyrosine kinase (200 μM), 70.6%.
On to `C#Cc1cccc2c1CN1C=Nc3cc(OCCOC)c(OCCOC)cc3C1=N2.Cl` [Compound V-4, 9-ethynyl-2,3-bis(2-methoxyethoxy)-8H-quinazolino[4,3-b]quinazoline hydrochloride trihydrate], for which the “The inhibition ratio of the compound on Aurora B(%)” value at aurora kinase B (40 μM) is 38.7%; at aurora kinase B (200 μM), 91.5%. Also, the inhibition at 10 µM in assay [1] is 31.4%; in assay [2] it was 48.6%; in [3] it was 22.2%; in assay [4] it was 44.1%; in [5], 33.5%; in assay [6], 39.7%. Besides, the inhibition at 10 µM in [7] stood at 48.9%; in assay [8], 6.85%; in assay [9], 31.3%. Further, the inhibition at 100 µM in assay [1] came out at 87.6%; in assay [2], 78.7%; in assay [3], 62.7%; in assay [4], 85%; in assay [5], 79%; in assay [6], 85.9%. Also, the inhibition at 100 µM in [7] worked out at 83.4%; in assay [8], 19.8%; in assay [9], 92.6%. For the same molecule, the “The inhibition ratio of the compound on EGFR(%)” value is 48.7% on EGFR tyrosine kinase (40 μM) and 93.2% at EGFR tyrosine kinase (200 μM).
In the case of `C#Cc1cccc(Nc2ncnc3cc(OCCOC)c(OCCOC)cc23)c1` [Erlotinib hydrochloride, reference compound], the IC50 came out at 35.6 µg/mL in assay [10]; 43.2 µg/mL in [11]; 40.4 µg/mL in assay [12]; 39.9 µg/mL in assay [13]; 13.1 µg/mL in [14]; 62.3 µg/mL in assay [15]. Moreover, the concentration for half-maximal inhibition (IC50) came to 19.3 µg/mL in [16], 32.5 µg/mL in [17] and 54.2 µg/mL in [18].
In the case of `COCCOc1cc2c(cc1OCCOC)C1=Nc3cccc(OC)c3CN1C=N2` [Compound V-10, 9-methoxy-2,3-bis(2-methoxyethoxy)-8H-quinazolino[4,3-b]quinazoline], the “The inhibition ratio of the compound on Aurora B(%)” value on aurora kinase B (40 μM) is listed as 20.8%; on aurora kinase B (200 μM) it was 73.6%. For the same molecule, the inhibition at 10 µM in assay [1] came to 47.5%; in assay [2], 28.8%; in assay [3], 9.39%; in assay [4], 41.1%; in [5], 31.9%; in [6], 36.5%. The inhibition at 10 µM stood at 10.8% in assay [7], 51.8% in assay [8] and 29.6% in [9]. Besides, the inhibition at 100 µM worked out at 85% in assay [1]; 82.8% in assay [2]; 91.7% in assay [3]; 72.2% in assay [4]; 72.2% in assay [5]; 96.9% in [6]. Moreover, the inhibition at 100 µM in assay [7] turned out to be 72.8%; in assay [8], 84.2%; in [9] it was 65.1%. Further, the “The inhibition ratio of the compound on EGFR(%)” value is listed as 30.8% on EGFR tyrosine kinase (40 μM) and 78.5% at EGFR tyrosine kinase (200 μM).
